Data on 5 compounds can be found in patent US10154990B2, “Medicaments for the treatment or prevention of fibrotic diseases” (Boehringer Ingelheim International GmbH, priority 2004, dated 2018).

Broadly, the melting point is the temperature of the solid-liquid transition.

Regarding `CCNC(=O)c1ccc2c(c1)NC(=O)/C2=C\Nc1ccc(N(CCCN(C)C)C(C)=O)cc1` [(cu), 3-Z-[1-(4-(N-(3-dimethylamino-propyl)-N-acetyl-amino)-anilino)-methylene]-6-ethylcarbamoyl-2-indolinone], the melting point stood at 130 °C.

As for `COC(=O)c1ccc2c(c1)NC(=O)/C2=C(\Nc1ccc(N(C)C(=O)CN(C)C)c(C#N)c1)c1ccccc1` [(v), 3-Z-[1-(3-cyano-4-(N-dimethylaminomethylcarbonyl-N-methyl-amino)-anilino)-1-phenyl-methylene]-6-methoxycarbonyl-2-indolinone], the melting point lay within 163 to 165 °C. `COC(=O)c1ccc2c(c1)NC(=O)/C2=C(\Nc1ccc(N(C)C(=O)CN(C)C)c(OC)c1)c1ccccc1` [(w), 3-Z-[1-(3-methoxy-4-(N-dimethylaminomethylcarbonyl-N-methyl-amino)-anilino)-1-phenyl-methylene]-6-methoxycarbonyl-2-indolinone] gave a melting point of 160 to 163 °C. The compound `COC(=O)c1ccc2c(c1)NC(=O)/C2=C(\Nc1ccc(N(C)C(=O)CN)cc1)c1ccccc1` [(x), 3-Z-[1-(4-(N-aminomethylcarbonyl-N-methyl-amino)-anilino)-1-phenyl-methylene]-6-methoxycarbonyl-2-indolinone] displayed a melting point of 221 °C.

With `COC(=O)c1ccc2c(c1)NC(=O)/C2=C(\Nc1ccc(N(C)C(=O)C(N)(CCO)CCO)cc1)c1ccccc1` [(z), 3-Z-[1-(4-(N-(di-(2-hydroxy-ethyl)-amino-methylcarbonyl)-N-methyl-amino)-anilino)-1-phenyl-methylene]-6-methoxycarbonyl-2-indolinone], the melting point was in the range of 199 to 202 °C.
